Data on three substances can be found in US20050074879A1, “Antisense oligonucleotide modulation of STAT3 expression” (priority 2000, published 2005).

Oligonucleotides are written 5' to 3', each unit as a sugar letter and its base; * is a phosphorothioate linkage, no mark a phosphodiester; rarer units and linkages stand in square brackets, end groups in braces. Plain capitals give the bases only. e = 2'-O-(2-methoxyethyl) (MOE); [5mC] = 5-methylcytosine; d = 2'-deoxy (DNA)

One data set deals with Mouse STAT3 mRNA. As to the kind of experiment: Inhibition of mouse STAT3 mRNA expression in BCL1 cells (electroporation; RNase protection/Northern blot). The data set is classed as cell-based. The arrangement: % mRNA INHIBITION: dose or concentration left out as unconfirmed. To be noted: BCL1 cells electroporated with oligonucleotide, RNA collected 24 hours later. The method, then: The B lymphoma cell line, BCL1 was obtained from ATCC (Rockville, Md.). BCL1 cells were cultured in RPMI 1640 medium.
BCL1 cells (5×10^6 cells in PBS) were transfected with oligonucleotides by electroporation, at 200V, […]. using a BTX Electro Cell Manipulator 600 (Genetronics, San Diego, Calif.). For an initial screen, BCL1 were electroporated with […] oligonucleotide and RNA collected 24 hours later. Controls without oligonucleotide were subjected to the same electroporation conditions.
Total cellular RNA was isolated using the RNEASY7 kit (Qiagen, Santa Clarita, Calif.). RNAse protection experiments were conducted using RIBOQUANT™ kits and template sets according to the manufacturer's instructions (Pharmingen, San Diego, Calif.). Northern blotting was performed as described in Chiang, M-Y. et al. (J. Biol. Chem., 1991, 266, 18162-18171), using a rat cDNA probe prepared by Xho I/Sal I restriction digest of psvsport-1 plasmid (ATCC, Rockville, Md.). mRNA levels were quantitated using a PhosphorImager (Molecular Dynamics, Sunnyvale, Calif.).

The subject of a further data set is Mouse STAT3 protein. As to the kind of experiment: STAT3 protein levels in BCL1 cells by Western blot, dose response. The data set is classed as cell-based. The method, then:
ISIS 17152 (SEQ ID. NO. 99) was chosen for further study. The effect of this oligonucleotide on protein levels was determined by Western blot. ISIS 23177 (SEQ ID NO. 106), a 3 base mismatch, was used as a control. BCL1 cells were grown, treated and processed as described in Example 2.
Nuclear extracts from primary B cells and B lymphoma cell lines were prepared as described in Karras, J. G., et al. (J. Exp. Med., 1997, 185, 1035-1042).
Western blotting was performed as described in Karras, J. G. et al. (J. Immunol., 1996, 157, 2299). STAT1 and STAT3 antibodies were obtained from UBI (Lake Placid, N.Y.).

In data set [1] the test system is IgM secretion by BCL1 cells. Nature of the data set: BCL1 IgM secretion, ELISA. The data set is classed as cell-based, mouse. The method, then: The effect of ISIS 17152 (SEQ ID. NO. 99) on IgM secretion levels was determined. STAT3 has been implicated in regulation of IgM expression (Faris, M., et al., Immunology, 1997, 90, 350-357). BCL1 cells were grown, treated and processed as described in Example 2.
1×10^6 BCL1 cells were incubated in 12-well plates in 2 mL complete RPMI following electroporation. Supernatant was replaced at 24 hour post electroporation with fresh medium. 48 hours later, supernatants were harvested, centrifuged to remove cells, and assayed for IgM content using the OPT-EIA™ ELISA kit (Pharmingen, San Diego, Calif.) and capture and detecting antibodies for mouse IgM (Southern Biotechnology, Birmingham, Ala.).

For another data set, the system named is BCL1 cells. As to the kind of experiment: BCL1 cell proliferation, [3H]-thymidine incorporation. The data set is classed as cell-based, mouse. To be noted: BCL1 cells; for % Cell Proliferation: 48 hours after electroporation. The method, then: The effect of ISIS 17152 (SEQ ID NO. 99) on BCL1 proliferation was determined. BCL1 cells contain constitutively active STAT3 which is thought to be responsible for their proliferation. BCL1 cells were grown, treated and processed as described in Example 2.
1×10^5 BCL1 cells were incubated in 96-well plates in […] complete RPMI following electroporation. Cultures were pulsed with […] of [^3H]-thymidine for the last 8 hours of culture and cells were harvested and analyzed for thymidine incorporation as described in Francis, D. A. et al. (Int. Immunol., 1995, 7, 151-161) 48 hours after electroporation.

The subject of the next data set is RANTES mRNA. As to the kind of experiment: Induction of chemokines in BCL1 cells, RNase protection assay: RANTES. The data set is classed as cell-based, mouse. To be noted: CpG oligonucleotide induced. The method, then: (§1) The effect of ISIS 17152 (SEQ ID. NO. 99) on chemokine levels was determined. BCL1 cells were grown, treated and processed as described in Example 2. Chemokine gene expression was induced in BCL1 cells by addition of […] of a CpG-containing oligonucleotide to the media 16 hours following antisense oligonucleotide electroporation. CpG-containing oligonucleotides are immune-stimulatory (Krieg, A. M., et al., Nature, 1995, 374, 546-549). The levels of chemokines were measured eight hours later using RNase protection assay as described in Example 2 with a mouse chemokine template set, Mck-5 (Pharmingen, San Diego, Calif.).

In the next data set the test system is MIP1a mRNA. Nature of the data set: Induction of chemokines in BCL1 cells, RNase protection assay: MIP1a. The data set is classed as cell-based, mouse. To be noted: CpG oligonucleotide induced. Here is the method:
as §1

The test system of the next data set is Human STAT3 mRNA. Nature of the data set: Inhibition of human STAT3 mRNA expression in U266 cells, Northern blot. The data set is classed as cell-based. To be noted: U266 cells, 2.5 μM oligonucleotide, electroporation, 24 hours. The method, then:
U266 human myeloma cell lines (originally obtained from American Type Culture Collection) were maintained in RPMI 1640 medium supplemented with 10% fetal calf serum. Cells (15×10^6 cells in PBS) were transfected with oligonucleotides at 200V with a single 6-millisecond pulse using a BTX Electro Square Porator T820 (Genetronics, San Diego Calif.). The cells were incubated for 24 hours before RNA extraction.
Total cellular RNA was isolated using the Rneasy kit (Qiagen, Santa Clarita, Calif.). Northern blotting was perfomed on 15 μg of RNA using a cDNA probe prepared from MB-MDA 468 RNA by standard RT-PCR followed by a nested primer reaction. Signals were quantitated using a Molecular Dynamics Phosphorimager.
In order to examine the importance of STAT3 expression in multiple myeloma cells, a series of 20mer STAT3 antisense oligonucleotides were designed and synthesized, using phosphorothioate chemistry and incorporating 2′-O-methoxyethyl modifications to improve hybridization affinity and nuclease resistance.

The test system of another data set is MIP1b mRNA. Nature of the data set: Induction of chemokines in BCL1 cells, RNase protection assay: MIP1b. The data set is classed as cell-based, mouse. To be noted: CpG oligonucleotide induced. The method, then: as §1

For the substance “17152 (antisense eA*eA*eA*eA*eA*dG*dT*dG*dC*dC*dC*dA*dG*dA*dT*eT*eG*e[5mC]*e[5mC]*e[5mC]) [compound 17152]”, the “% mRNA INHIBITION” value is on record as 75% with Mouse STAT3 mRNA and 17.5% with Human STAT3 mRNA. Further, the “% mRNA EXPRESSION” value in the data set with Mouse STAT3 mRNA (control 100%) came out at 25%; in the data set with Human STAT3 mRNA (percent of control) it was 82.5%. In addition, the “% protein Expression” value in the data set with Mouse STAT3 protein (dose 10 nM) is given as 41.7%; in the data set on Mouse STAT3 protein (dose 15 nM), 42.5%; with Mouse STAT3 protein (dose 20 nM), 26.5%. Further, the figures for the “% protein Inhibition” value in the data set on Mouse STAT3 protein (dose 10 nM), in the data set on Mouse STAT3 protein (dose 15 nM) and in the data set with Mouse STAT3 protein (dose 20 nM) were 58.3%, 57.5% and 73.5%, respectively. Also, the “% IgM Expression” value was determined as 34.2% in data set [1] (dose 5 nM) and 23.1% in data set [1] (dose 15 nM). The figures for the “% IgM Inhibition” value in data set [1] (dose 5 nM) and in data set [1] (dose 15 nM) were 65.8% and 76.9%, respectively. Further, the “% Cell Inhibition” value with BCL1 cells (dose 10 nM) came to 21.5%; in the data set on BCL1 cells (dose 15 nM), 45.6%; with BCL1 cells (dose 20 nM) it was 49.8%. Besides, the “% Cell Proliferation” value with BCL1 cells (dose 10 nM) is given as 78.5%; in the data set with BCL1 cells (dose 15 nM), 54.4%; with BCL1 cells (dose 20 nM), 50.2%. Besides, the “% RANTES mRNA” value in the data set on RANTES mRNA (dose 5 nM, control 100%) is on record as 236%; in the data set with RANTES mRNA (dose 10 nM), 266%; in the data set with RANTES mRNA (dose 20 nM) it was 257%. Also, the results for the “% MIP1a mRNA” value with MIP1a mRNA (dose 5 nM), in the data set with MIP1a mRNA (dose 10 nM) and in the data set on MIP1a mRNA (dose 20 nM) were 201%, 258% and 254%, respectively. The “% MIP1b mRNA” value worked out at 133% with MIP1b mRNA (dose 5 nM), 150% with MIP1b mRNA (dose 10 nM) and 159% in the data set on MIP1b mRNA (dose 20 nM).
Take “23177 (antisense eA*eA*eA*eA*eA*dG*dT*dC*dC*dG*dC*dT*dG*dA*dT*eT*eG*e[5mC]*e[5mC]*e[5mC]) [compound 23177]”: the results for the “% protein Expression” value with Mouse STAT3 protein (dose 10 nM), with Mouse STAT3 protein (dose 15 nM) and in the data set on Mouse STAT3 protein (dose 20 nM) were 75.1%, 67.6% and 62.6%, respectively. Moreover, the “% protein Inhibition” value in the data set with Mouse STAT3 protein (dose 10 nM) is listed as 24.9%; in the data set with Mouse STAT3 protein (dose 15 nM) it was 32.4%; with Mouse STAT3 protein (dose 20 nM), 37.4%. Also, the “% IgM Expression” value in data set [1] (dose 5 nM) amounted to 110.0%; in data set [1] (dose 15 nM), 80.8%. The “% IgM Inhibition” value in data set [1] (dose 15 nM) is listed as 19.2%. Moreover, the “% Cell Proliferation” value is 117.0% in the data set with BCL1 cells (dose 10 nM), 99.7% with BCL1 cells (dose 15 nM) and 107.0% with BCL1 cells (dose 20 nM). Further, the “% Cell Inhibition” value with BCL1 cells (dose 15 nM) is 0.3%.
With “23178 (antisense eA*eA*eA*eA*eA*dC*dT*dC*dC*dG*dC*dT*dG*dA*dA*eT*eG*e[5mC]*e[5mC]*e[5mC]) [compound 23178]”, the “% RANTES mRNA” value in the data set on RANTES mRNA (dose 5 nM, control 100%) turned out to be 96%; with RANTES mRNA (dose 10 nM), 70.2%; in the data set on RANTES mRNA (dose 20 nM) it was 56%. Also, the entries for the “% MIP1a mRNA” value in the data set on MIP1a mRNA (dose 5 nM), in the data set on MIP1a mRNA (dose 10 nM) and in the data set with MIP1a mRNA (dose 20 nM) were 123%, 116% and 106%, respectively. The figures for the “% MIP1b mRNA” value in the data set on MIP1b mRNA (dose 5 nM), in the data set on MIP1b mRNA (dose 10 nM) and in the data set with MIP1b mRNA (dose 20 nM) were 96.5%, 87.1% and 73.3%, respectively.
